Converted amounts (≈) assume the structure as drawn.
How the values were obtained:
[1] = test system: mouse lung cancer (lewis lung carcinoma); test: anti-cancer action against grafted mouse lung cancer, tumor volume; format: in vivo; details: mouse pulmonary cancer
Excerpt: (§1) The anti-cancer action of the compound of the present invention against mouse lung cancer (lewis lung carcinoma) and mouse breast cancer (Ehrlich B) was examined. 1 x 10⁶ mouse lung cancer cells or mouse breast cancer cells were grafted into a subcutaneous portion of the groin of an eight week-old male BDF₁ or ICR mouse, and the compound of the present invention was intraperitoneally administered to the mouse in various concentrations every day from two days after the graft once a day for 9 days. On the second day after completion of the administration, the minor axis and the major axis of the tumor were measured, and the volume of the tumor was determined by using the following equation: (minor axis)² x […]/2 [formula] . Then, the percentage inhibition of proliferation of each tumor with respect to the compound of the present invention was determined from the ratio of the volume of the tumor on the groups of administration of the compound of the present invention relative to that on the control group.

[2] = test system: mouse malignant melanoma (B16 melanotic melanoma); test: in-vivo test by peroral administration against mouse malignant melanoma, tumor volume; design: species or system C57BL/6 mouse
Excerpt: The anti-cancer action of the compound of the present invention against mouse malignant melanoma (B16 melanotic melanoma) was examined. 5 x 10⁵ mouse malignant melanoma cells were inoculated into a subcutaneous portion of the right body side of a 6 week-old male C57BL/6 mouse, and the compound of the present invention was perorally administered to the mouse in various concentrations every day from the next day or from 7 days after the inoculation once a day for 5 days. On the 11 days after the inoculation, the minor axis and the major axis of the tumor were measured, and the volume of the tumor was determined by using the following equation: (minor axis)² x […] [formula] . Then, the percentage inhibition of proliferation of each tumor with respect to the compound of the present invention was determined from the ratio of the volume of the tumor on the groups of administration of the compound of the present invention relative to that on the control group.

[3] = test system: mouse colonic cancer cells (Colon 26); test: growth-inhibitory effect on mouse colonic cancer cells, dye exclusion method; format: cell-based
Method: The growth-inhibitory effects of the compound of the present invention on mouse colonic cancer cells (Colon 26) and human colonic cancer cells (SWlll6) were examined. A 96-well plate was inoculated with mouse colonic cancer cells at a ratio of 1.5 x 10³ cells per well, while another 96-well plate was inoculated with human colonic cancer cells at a ratio of 3.0 x 10³ per well. These cells were incubated in an incubator at 37°C under 5 % CO₂ for 24 hours. Then the compound of the present invention was added thereto at various concentrations. Cells in each well were counted by the dye exclusion method 65 hours and 96 hours after the addition to thereby evaluate the growth-inhibitory effect of the test compound on the mouse colonic cancer cells and that on the human colonic cancer cells.

[4] = test system: cancer of the mouse colon (colon 26); test: anti-cancer action against grafted mouse colon cancer, prolongation of life; format: in vivo, BALB/c mouse
Excerpt: The anti-cancer action of the compound of the present invention against the cancer of the mouse colon (colon 26) was examined. A cancer debris of mouse colon having an area of 2 mm³ was grafted into a subcutaneous portion of the left body side of a 6 week-old male BALB/c mouse, and the compound of the present invention was intraperitoneally administered to the mouse in various concentrations every day from the next day of the graft once a day for 9 days. The general conditions of the mouse were observed every day after the initiation of the administration. The percentage prolongation of life (T/C) of the mouse with respect to the compound of the present invention was determined from the ratio of the average survival time on the groups of administration of the compound of the present invention relative to that on the control group.

[5] = test system: mouse breast cancer (Ehrlich B); test: anti-cancer action against grafted mouse breast cancer, tumor volume; format: in vivo
Excerpt: as §1

[6] = test system: human pulmonary cancer cells (PC-3); test: growth-inhibitory effect on human pulmonary cancer cells, dye exclusion method; format: cell-based; details: 72 h
Method: The growth-inhibitory effects of the compound of the present invention on mouse pulmonary cancer cells (LL) and human plumonary cancer cells (PC-3) were examined.
A 96-well plate was inoculated with mouse pulmonary cancer cells at a ratio of 8.0 x 10² cells per well, while another 96-well plate was inoculated with human pulmonary cancer cells at a ratio of 2.5 x 10³ per well. These cells were incubated in an incubator at 37°C under 5 % CO₂ for 24 hours. Then the compound of the present invention was added thereto at various concentrations. Cells in each well were counted by the dye exclusion method three days after the addition to thereby evaluate the growth-inhibitory effect of the test compound on the mouse pulmonary cancer cells (LL) and that on the human pulmonary cancer cells (PC-3).

[7] = test system: HeLa S₃ cells; test: growth-inhibitory effect on HeLa S3 culture cells, dye exclusion method; format: cell-based; details: Homo sapiens, 72 h, three days after the addition
Method: The growth-inhibitory effect of the compound of the present invention on HeLa S₃ culture cells was examined. A 96-well plate was inoculated with HeLa S₃ cells at a ratio of 1.5 x 10³ cells/well and incubated in an incubator at 37°C under 5% CO2 for 24 hours. One day after the inoculation, the compound of the present invention was added to the culture medium at various concentrations. Three days after the addition, cells in each well were counted by the dye exclusion method to thereby evaluate the growth-inhibitory effect of the compound of the present invention at various concentrations on HeLa S₃ cells.

[8] = 0.063 mg/kg intraperitoneally once a day for 9 days
[9] = 0.125 mg/kg intraperitoneally once a day for 9 days
[10] = 0.250 mg/kg intraperitoneally once a day for 9 days
[11] = 0.500 mg/kg intraperitoneally once a day for 9 days

`CCC1C=CC=CCC(C)C(O)C(C)(O)C(=O)C(C)C(O)C(C)C(=O)C(C)C(O)C(C)C=CC(=O)OC2C(C)C(CC1)OC1(OC(CC(C)O)C(C)CC1=O)C2CC` (centres unmarked) [NK86-0279] was tested, and the “Growth-inhibitory ratio (tumor volume)” value [1, 8] was 46.3%, the “Growth-inhibitory ratio (tumor volume)” value [1, 9] was 57.1% and the “Growth-inhibitory ratio (tumor volume)” value [1, 10] was 8.9%. The “Growth-inhibitory ratio (tumor volume)” value [1, 11] was 59.6%, the “Growth-inhibitory ratio (tumor volume)” value ([2]; 0.5 mg/kg perorally once a day for 5 days, administered from 7 days after the inoculation) was 44.7% and the “Growth-inhibitory ratio (tumor volume)” value ([2]; 0.5 mg/kg perorally once a day for 5 days, administered from the next day of the inoculation) was 90.5%. The “Growth-inhibitory ratio (tumor volume)” value ([2]; 1.0 mg/kg perorally once a day for 5 days, administered from 7 days after the inoculation) was 72.3%, the “Growth-inhibitory ratio (tumor volume)” value ([2]; 1.0 mg/kg perorally once a day for 5 days, administered from the next day of the inoculation) was 94.6% and the “Growth-inhibitory ratio (tumor volume)” value ([2]; 2.0 mg/kg perorally once a day for 5 days, administered from 7 days after the inoculation) was 57.4%. For the same molecule, the “Growth-inhibitory ratio (tumor volume)” value ([2]; 2.0 mg/kg perorally once a day for 5 days, administered from the next day of the inoculation) was 69.5%, the “Growth-inhibitory ratio (tumor volume)” value ([2]; 4.0 mg/kg perorally once a day for 5 days, administered from 7 days after the inoculation) was 75.5% and the “Growth-inhibitory ratio (tumor volume)” value ([2]; 4.0 mg/kg perorally once a day for 5 days, administered from the next day of the inoculation) was 64.5%. For the same molecule, the “Growth-inhibitory ratio (tumor volume)” value ([2]; 8.0 mg/kg perorally once a day for 5 days, administered from 7 days after the inoculation) was 67.0%, the “Growth-inhibitory ratio (tumor volume)” value ([2]; 8.0 mg/kg perorally once a day for 5 days, administered from the next day of the inoculation) was 66.0% and the inhibition at 0.0061 µg/mL ([3]; Mus musculus, Colon 26, 0.0061 µg/ml, read-out: Growth-inhibitory ratio) was 84.6%. It also gave an inhibition at 0.024 µg/mL ([3]; Mus musculus, Colon 26, 0.024 µg/ml, read-out: Growth-inhibitory ratio) of 87.5%, an inhibition at 0.098 µg/mL ([3]; Mus musculus, Colon 26, 0.098 µg/ml, read-out: Growth-inhibitory ratio) of 86.1% and an inhibition at 0.39 µg/mL ([3]; Mus musculus, Colon 26, 0.39 µg/ml, read-out: Growth-inhibitory ratio) of 87.6%. For the same molecule, the inhibition at 1.56 µg/mL ([3]; Mus musculus, Colon 26, 1.56 µg/ml, read-out: Growth-inhibitory ratio) was 94.2%, the inhibition at 6.25 µg/mL ([3]; Mus musculus, Colon 26, 6.25 µg/ml, read-out: Growth-inhibitory ratio) was 105% and the inhibition at 25 µg/mL ([3]; Mus musculus, Colon 26, 25 µg/ml, read-out: Growth-inhibitory ratio) was 108%. For the same molecule, the inhibition at 100 µg/mL ([3]; Mus musculus, Colon 26, 100 µg/ml, read-out: Growth-inhibitory ratio) was 104%, the IC50 ([3]; mouse colonic cancer cells (Colon 26), read-out: IC₅₀) was less than 6.1 ng/mL and the “T/C (percentage prolongation of life)” value [4, 8] was 136%. The “T/C (percentage prolongation of life)” value [4, 9] was 130%, the “T/C (percentage prolongation of life)” value [4, 10] was 153% and the “T/C (percentage prolongation of life)” value [4, 11] was 143%. The “Growth-inhibitory ratio (tumor volume)” value ([5]; 0.032 mg/kg intraperitoneally once a day for 9 days) was 22.5%, the “Growth-inhibitory ratio (tumor volume)” value [5, 8] was -0.4% and the “Growth-inhibitory ratio (tumor volume)” value [5, 9] was 44.3%. The “Growth-inhibitory ratio (tumor volume)” value ([5]; 0.250 mg/kg intraperitoneally once a day for 9 days, 0.25 mg/kg) was 67%, the “Growth-inhibitory ratio (tumor volume)” value [5, 11] was 61.7% and the IC50 ([6]; human pulmonary cancer cells (PC-3), three days after the addition, read-out: IC₅₀) was 2130 ng/mL (≈ 2600 nM). It also gave an inhibition at 0.024 µg/mL ([6]; Homo sapiens, PC-3, 0.024 µg/ml, read-out: Growth-inhibitory ratio) of 25.1%, an inhibition at 0.061 µg/mL ([6]; Homo sapiens, PC-3, 0.061 µg/ml, read-out: Growth-inhibitory ratio) of 12% and an inhibition at 0.098 µg/mL ([6]; Homo sapiens, PC-3, 0.098 µg/ml, read-out: Growth-inhibitory ratio) of 28.1%. The inhibition at 0.39 µg/mL ([6]; Homo sapiens, PC-3, 0.39 µg/ml, read-out: Growth-inhibitory ratio) was 28%, the inhibition at 1.56 µg/mL ([6]; Homo sapiens, PC-3, 1.56 µg/ml, read-out: Growth-inhibitory ratio) was 38.1% and the inhibition at 6.25 µg/mL ([6]; Homo sapiens, PC-3, 6.25 µg/ml, read-out: Growth-inhibitory ratio) was 85.9%. It also gave an inhibition at 25 µg/mL ([6]; Homo sapiens, PC-3, 25 µg/ml, read-out: Growth-inhibitory ratio) of 99.3%, an inhibition at 100 µg/mL ([6]; Homo sapiens, PC-3, 100 µg/ml, read-out: Growth-inhibitory ratio) of 97.2% and an IC50 ([7]; HeLa S₃ cells, read-out: IC₅₀) of 2.7 ng/mL (≈ 3.3 nM). For the same molecule, the inhibition at 0.00064 µg/mL ([7]; HeLa, 0.00064 µg/ml, read-out: Growth-inhibitory ratio) was 22.9%, the inhibition at 0.0032 µg/mL ([7]; HeLa, 0.0032 µg/ml, read-out: Growth-inhibitory ratio) was 53.5% and the inhibition at 0.016 µg/mL ([7]; HeLa, 0.016 µg/ml, read-out: Growth-inhibitory ratio) was 61.2%. The inhibition at 0.08 µg/mL ([7]; HeLa, 0.08 µg/ml, read-out: Growth-inhibitory ratio) was 73.5% and the inhibition at 0.4 µg/mL ([7]; HeLa, 0.4 µg/ml, read-out: Growth-inhibitory ratio) was 81.2%.

Reference: patent EP0322748B1, “Antibiotic NK86-0279, process for production of the same and application of the same” (NIPPON KAYAKU KABUSHIKI KAISHA, priority 1987, dated 1989)
